Values after ≈ are worked out from the molar mass of the structure shown. Read-outs that look alike come from different tables or passages of the source.
How the values were obtained:
Format in all cases: physicochemical
[1] = Solution formulation feasibility study: covalent aggregates by SEC; settings: pH values of 7.0-8.5
Description: Solutions were filtered through […] PVDF filters. In a laminar flow hood, the solutions were filled into glass vials. Vials were capped, and stored at 5° C., 25° C. and 30° C. Samples were withdrawn and submitted for testing as follows: (a) initial testing; (b) two weeks; and (c) one month. The formation of covalent aggregates was measured by size-exclusion chromatography (SEC).

[2] = Solubility of Compound 1 at 25° C. between pH 5.0 and pH 7.0 (UV-Vis at 280 nm)
Description: All solutions comprised 10 mM tris (1.21 g/L) and 0.05% EDTA (0.5 g/L). The solution pH was titrated using either 1N hydrochloric acid or concentrated tris base stock solution.
The concentration of Compound 1 was measured at 280 nm by a UV-Vis spectrophotometer (SoloVPE). UV-Vis spectrophotometer is commonly used for quantification of proteins or peptides in solution. A characteristic UV absorption spectrum around 280 nm is predominately from the aromatic amino acids such as tryptophan (Trp, W) and tyrosine (Tyr, Y). When the molar extinction coefficient of the protein or peptide is known, the Beer-Lambert law is used to accurately quantitate amount of protein or peptide by UV absorbance, assuming the molecule contains no UV-absorbing non-proteinaceous components such as bound nucleotide cofactors, heme, or iron-sulfur centers. Compound 1 has tyrosine amino acid residues at positions 10 and 13 and has a tryptophan amino acid residue at position 25 and has an extinction coefficient of 1.86 mL·mg^−1·cm^−1 (as calculated by the Pace Method). Measuring the peptide concentration at different pH conditions by this method is appropriate for Compound 1.

[3] = Effect of antioxidants: chemical stability by RP-HPLC (total impurities, Trp oxidation); settings: refrigerated condition
Description: Solutions were filtered through […] PVDF filters. In a laminar flow hood, the solutions were filled into glass vials. Vials were capped, and stored at 5° C., 25° C. and 30° C. Four formulations comprising Compound 1 were prepared to evaluate the stabilization efficacy of antioxidants, namely, EDTA, citrate and methionine. […] Subsequently, a fifth sample containing higher concentration of methionine (100 mM vs. 10 mM) was prepared to evaluate the effect of methionine concentration (Table 15, Lot No. 26). Samples were prepared, and stored at 5° C., 25° C. and 30° C. for up to 3 months. At appropriate times, stability-indicating assays were performed to assess the physical and chemical stability.
At 25° C. and 30° C., there are significant differences in stabilization efficacy.

stability in certain formulations [1]: sub-optimal stability
solubility ([2]; 10 mM tris buffer with 0.05% EDTA, aqueous buffer, Solution pH 6.16, 10 mM tris and 0.05% EDTA, 25° C., read-out: Compound 1 concentration in solution): 14.5 mg/mL (≈ 3.19 mM)
solubility ([2]; 10 mM tris buffer with 0.05% EDTA, aqueous buffer, Solution pH 6.84, 10 mM tris and 0.05% EDTA, 25° C., read-out: Compound 1 concentration in solution): 44.6 mg/mL (≈ 9.76 mM)
Compound 1 concentration in solution ([2]; Solution pH 5.31, 10 mM tris and 0.05% EDTA, 25° C.): 0.00 mg/mL
solubility ([2]; lower pH values (e.g. pH 5.0 to 6.5)): sub-optimal solubility
solubility (change with pH) ([2]; pH increased from 5.3 to 6.8): increased significantly
solubility by extrapolation of the data ([2]; pH values of 7.0 and above): higher
chemical degradation by RP-HPLC [3]: not substantial
SMILES: CC(C)C[C@H](NC(=O)[C@H](CC(C)C)NC(=O)[C@H](Cc1c[nH]c2ccccc12)NC(=O)[C@H](CCC(=O)O)NC(=O)[C@@H](NC(=O)[C@H](Cc1ccccc1)NC(=O)[C@H](CCC(=O)O)NC(=O)[C@H](CCCCNC(=O)COCCOCCNC(=O)COCCOCCNC(=O)CC[C@H](NC(=O)CCCCCCCCCCCCCCCCCCC(=O)O)C(=O)O)NC(=O)[C@H](C)NC(=O)[C@H](CCCCN)NC(=O)[C@H](CCCCN)NC(=O)[C@H](CCC(=O)O)NC(=O)[C@H](CC(=O)O)NC(=O)[C@H](CC(C)C)NC(=O)[C@H](Cc1ccc(O)cc1)NC(=O)[C@H](CCCCN)NC(=O)[C@H](CO)NC(=O)[C@H](Cc1ccc(O)cc1)NC(=O)[C@H](CC(=O)O)NC(=O)[C@H](CO)NC(=O)[C@@H](NC(=O)[C@H](Cc1ccccc1)NC(=O)[C@@H](NC(=O)CNC(=O)[C@H](CCC(N)=O)NC(=O)C(C)(C)NC(=O)[C@@H](N)Cc1c[nH]cn1)[C@@H](C)O)[C@@H](C)O)C(C)C)C(=O)N[C@@H](CCC(=O)O)C(=O)NCC(=O)NCC(=O)N1CCC[C@H]1C(=O)N[C@@H](CO)C(=O)N[C@@H](CO)C(=O)NCC(N)=O [Compound 1]

Reference: patent US20240299499A1, “Therapeutic Peptide Formulations” (Eli Lilly and Company, priority 2020, published 2024)
